Measurements from ChEMBL document CHEMBL1142758, “Neuroprotective effects of naturally occurring biflavonoids” (2005).

What was measured:
Format in all cases: functional
[1] = Protective effect of compound on Ab25 35-induced cell death in SH-SY5Y cells (concentration = 4 uM)
[2] = Protective effect of compound on hydrogen peroxide-induced cell death in SH-SY5Y cells (concentration = 10 uM)
[3] = Protective effect of compound on SNP-induced cell death in SH-SY5Y cells (concentration = 2 uM)
[4] = Protective effect of compound on SNP-induced cell death in SH-SY5Y cells (concentration = 0.4 uM)
[5] = Protective effect of compound on hydrogen peroxide-induced cell death in SH-SY5Y cells (concentration = 0.4 uM)
[6] = Protective effect of compound on hydrogen peroxide-induced cell death in SH-SY5Y cells (concentration = 2 uM)
[7] = Protective effect of compound on Ab25 35-induced cell death in SH-SY5Y cells (concentration = 0.2 uM)
[8] = Protective effect of compound on Ab25 35-induced cell death in SH-SY5Y cells (concentration = 10 uM)
[9] = Protective effect of compound on SNP-induced cell death in SH-SY5Y cells (concentration = 10 uM)
[10] = Protective effect of compound on compounds on SNP-induced cell death in SH-SY5Y cells (concentration = 0.4 uM)
[11] = Protective effect of test compound on SNP-induced cell death in SH-SY5Y cells (concentration = 0.4 uM)
[12] = Protective effect of test compound on Ab25 35-induced cell death in SH-SY5Y cells (concentration = 0.2 uM)
[13] = Protective effect of test compound on Ab25 35-induced cell death in SH-SY5Y cells (concentration = 10 uM)
[14] = Protective effect of test compound on hydrogen peroxide-induced cell death in SH-SY5Y cells (concentration = 2 uM)
[15] = Protective effect of test compound on SNP-induced cell death in SH-SY5Y cells (concentration = 10 uM)
[16] = Protective effect of test compound on SNP-induced cell death in SH-SY5Y cells (concentration = 2 uM)
[17] = Protective effect of test compound on Ab25 35-induced cell death in SH-SY5Y cells (concentration = 4 uM)
[18] = Protective effects of test compounds on Ab25 35-induced cell death in SH-SY5Y cells (concentration = 10 uM)

| SMILES | Inhibition [1] [%] | Inhibition [2] [%] | Inhibition [3] [%] | Inhibition [4] [%] | Inhibition [5] [%] | Inhibition [6] [%] | Inhibition [7] | Inhibition [8] | Inhibition [9] [%] | Inhibition [10] [µM] | Inhibition [11] [µM] | Inhibition [12] [µM] | Inhibition [13] [µM] | Inhibition [14] [µM] | Inhibition [15] [µM] | Inhibition [16] [µM] | Inhibition [17] [µM] | Inhibition [18] [µM] |
| --- | --- | --- | --- | --- | --- | --- | --- | --- | --- | --- | --- | --- | --- | --- | --- | --- | --- | --- |
| COC1=CC2OC(c3ccc(O)cc3)=CC(=O)C2C(O)=C1Oc1ccc(-c2cc(=O)c3c(O)cc(O)cc3o2)cc1 (stereo unspecified) | 11 | 68.1 | -14.8 | -16 | -3.5 | 23.9 | 18% | -0.2% | -25 | – | – | – | – | – | – | – | – | – |
| COc1cc(O)c2c(=O)cc(-c3ccc(OC)c(C4=C(O)C=C(O)C5C(=O)C=C(c6ccc(O)cc6)OC45)c3)oc2c1 (stereo unspecified) | 43.6 | 35.7 | 7.8 | – | 11.3 | 12.2 | 29.5 µM | 5.6% | 32.4 | -0.1 | – | – | – | – | – | – | – | – |
| COc1ccc(-c2cc(=O)c3c(O)cc(O)cc3o2)cc1Oc1ccc(-c2cc(=O)c3c(O)cc(O)cc3o2)cc1 | 0.9 | 12.1 | 0.1 | 2.9 | 1.8 | -1.2 | 13% | 14.8% | 1.6 | – | – | – | – | – | – | – | – | – |
| O=C1C=C(c2ccc(O)cc2)OC2C=C(O)C(Oc3ccc(-c4cc(=O)c5c(O)cc(O)cc5o4)cc3)=C(O)C12 (stereo unspecified) | -19.9 | 56 | -9.4 | 2.5 | 7.8 | 19.8 | 8.7% | -10% | 15 | – | – | – | – | – | – | – | – | – |
| COc1ccc(C2=CC(=O)C3C(O)=CC(O)=C(c4cc(-c5cc(=O)c6c(O)cc(O)cc6o5)ccc4OC)C3O2)cc1 (stereo unspecified) | 59.1 | 55.1 | 10.5 | 6.9 | 40.1 | 28.7 | 19.7% | 43.8 µM | 23.5 | – | – | – | – | – | – | – | – | – |
| COc1ccc(-c2cc(=O)c3c(O)cc(O)cc3o2)cc1C1=C(O)C=C(O)C2C(=O)C=C(c3ccc(O)cc3)OC12 (stereo unspecified) | 1.9 | 62.9 | 4.8 | 2.5 | 25.3 | 30.4 | 9.8% | -7.5% | 11 | – | – | – | – | – | – | – | – | – |
| O=C1C=C(c2ccc(O)cc2)OC2C(c3cc(-c4cc(=O)c5c(O)cc(O)cc5o4)ccc3O)=C(O)C=C(O)C12 (stereo unspecified) | – | 62 | – | – | 27 | – | – | – | – | – | 5.2 | 3.6 | 31.8 | 39.9 | 40.5 | 16.4 | 25.4 | – |
| COc1ccc(C2=CC(=O)C3C(O)=CC(O)=C(c4cc(-c5cc(=O)c6c(O)cc(OC)cc6o5)ccc4OC)C3O2)cc1 (stereo unspecified) | 38.1 | 69.5 | 8.1 | 28.5 | 39.5 | 52.1 | 27.1% | – | 4.6 | – | – | – | – | – | – | – | – | 35.1 |
| O=c1cc(-c2ccc(Oc3cc(-c4cc(=O)c5c(O)cc(O)cc5o4)ccc3O)cc2)oc2cc(O)cc(O)c12 [OCHNAFLAVONE] | -32.1 | -32.7 | 7.7 | 10 | -3.6 | -12.1 | -12.7% | -1.9% | 9.3 | – | – | – | – | – | – | – | – | – |
